Measurements as given in PubChem BioAssay (NCI).
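Here, GI50 denotes the concentration required for 50% inhibition of growth. The concentration for full growth arrest is given as TGI.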

Legend:
Experiment in all cases: growth of human tumour cells (NCI), 384-well format
SF-539 CNS = system: SF-539 CNS
UACC-62 melanoma = system: UACC-62 melanoma
M14 melanoma = system: M14 melanoma
IGROV1 ovarian = system: IGROV1 ovarian
RXF 393 renal = system: RXF 393 renal
A498 renal = system: A498 renal
HOP-92 NSCLC = system: HOP-92 NSCLC
NCI-H460 NSCLC = system: NCI-H460 NSCLC
SNB-19 CNS = system: SNB-19 CNS
SR leukemia = system: SR leukemia
LOX IMVI melanoma = system: LOX IMVI melanoma
UO-31 renal = system: UO-31 renal
NCI-H23 lung = system: NCI-H23 lung
MCF7 breast = system: MCF7 breast
SK-OV-3 ovarian = system: SK-OV-3 ovarian
U251 glioblastoma = system: U251 glioblastoma
T-47D breast = system: T-47D breast
HOP-62 NSCLC = system: HOP-62 NSCLC
OVCAR-8 ovarian = system: OVCAR-8 ovarian
CCRF-CEM leukemia = system: CCRF-CEM leukemia
CAKI-1 renal = system: CAKI-1 renal
K-562 leukemia = system: K-562 leukemia
NCI-H522 lung = system: NCI-H522 lung
NCI-H322M lung = system: NCI-H322M lung
OVCAR-3 ovarian = system: OVCAR-3 ovarian
BT-549 breast = system: BT-549 breast
MDA-MB-468 breast = system: MDA-MB-468 breast
SNB-75 CNS = system: SNB-75 CNS
TK-10 renal = system: TK-10 renal
RPMI-8226 leukemia = system: RPMI-8226 leukemia
HL-60(TB) leukemia = system: HL-60(TB) leukemia
OVCAR-4 ovarian = system: OVCAR-4 ovarian
UACC-257 melanoma = system: UACC-257 melanoma
SW-620 colon = system: SW-620 colon
EKVX NSCLC = system: EKVX NSCLC
PC-3 prostate = system: PC-3 prostate
HS 578T breast = system: HS 578T breast
HCT-116 colon = system: HCT-116 colon
SK-MEL-5 melanoma = system: SK-MEL-5 melanoma
COLO 205 colon = system: COLO 205 colon
MOLT-4 leukemia = system: MOLT-4 leukemia
HT29 colon = system: HT29 colon
MDA-MB-435 melanoma = system: MDA-MB-435 melanoma
SN12C renal = system: SN12C renal
MDA-MB-231 breast = system: MDA-MB-231 breast
NCI-H226 lung = system: NCI-H226 lung
ACHN renal = system: ACHN renal
786-0 renal = system: 786-0 renal
KM12 colon = system: KM12 colon
A549 NSCLC = system: A549 NSCLC
DU-145 prostate = system: DU-145 prostate
NCI/ADR-RES ovarian = system: NCI/ADR-RES ovarian
HCC-2998 colon = system: HCC-2998 colon
MALME-3M melanoma = system: MALME-3M melanoma
SF-268 CNS = system: SF-268 CNS
SK-MEL-28 melanoma = system: SK-MEL-28 melanoma
HCT-15 colon = system: HCT-15 colon
SF-295 CNS = system: SF-295 CNS
OVCAR-5 ovarian = system: OVCAR-5 ovarian

For `Cc1sc2c(c1C)C(c1ccc(Cl)cc1)=N[C@@H](CC(=O)Nc1ccc(O)cc1)c1nnc(C)n1-2`, the GI50 (SF-539 CNS) was 0.292 µM, the TGI (SF-539 CNS) was 12.5 µM and the GI50 (UACC-62 melanoma) was 0.0422 µM. It also gave a TGI (UACC-62 melanoma) of 2.96 µM, a GI50 (M14 melanoma) of 0.262 µM and a TGI (M14 melanoma) of 12.1 µM. The GI50 (IGROV1 ovarian) was 0.158 µM, the TGI (IGROV1 ovarian) was 4.13 µM and the GI50 (RXF 393 renal) was 0.74 µM. The TGI (RXF 393 renal) was 4.39 µM, the GI50 (A498 renal) was 0.38 µM and the TGI (A498 renal) was 10.4 µM. For the same molecule, the GI50 (HOP-92 NSCLC) was 0.156 µM, the TGI (HOP-92 NSCLC) was 11.5 µM and the GI50 (NCI-H460 NSCLC) was 0.337 µM. It also gave a TGI (NCI-H460 NSCLC) of 14.9 µM, a GI50 (SNB-19 CNS) of 0.355 µM and a TGI (SNB-19 CNS) of 16.7 µM. It also gave a GI50 (SR leukemia) of 0.0117 µM, a TGI (SR leukemia) of 0.0588 µM and a GI50 (LOX IMVI melanoma) of 0.108 µM. The TGI (LOX IMVI melanoma) was 0.266 µM, the GI50 (UO-31 renal) was 0.632 µM and the TGI (UO-31 renal) was 14.4 µM. It also gave a GI50 (NCI-H23 lung) of 0.213 µM, a TGI (NCI-H23 lung) of 2.86 µM and a GI50 (MCF7 breast) of 0.0543 µM. For the same molecule, the TGI (MCF7 breast) was 12.4 µM, the GI50 (SK-OV-3 ovarian) was 0.173 µM and the TGI (SK-OV-3 ovarian) was 5.48 µM. The GI50 (U251 glioblastoma) was 0.644 µM, the TGI (U251 glioblastoma) was 14.6 µM and the GI50 (T-47D breast) was 0.252 µM. It also gave a TGI (T-47D breast) of 15.3 µM, a GI50 (HOP-62 NSCLC) of 0.158 µM and a TGI (HOP-62 NSCLC) of 3.9 µM. For the same molecule, the GI50 (OVCAR-8 ovarian) was 0.118 µM, the TGI (OVCAR-8 ovarian) was 1.57 µM and the GI50 (CCRF-CEM leukemia) was 0.106 µM. For the same molecule, the TGI (CCRF-CEM leukemia) was 8 µM, the GI50 (CAKI-1 renal) was 0.0449 µM and the TGI (CAKI-1 renal) was 7.15 µM. It also gave a GI50 (K-562 leukemia) of 0.133 µM, a TGI (K-562 leukemia) of 13.4 µM and a GI50 (NCI-H522 lung) of 0.0624 µM. For the same molecule, the TGI (NCI-H522 lung) was 0.73 µM, the GI50 (NCI-H322M lung) was 0.219 µM and the TGI (NCI-H322M lung) was 14.3 µM. For the same molecule, the GI50 (OVCAR-3 ovarian) was 0.0666 µM, the TGI (OVCAR-3 ovarian) was 1.91 µM and the GI50 (BT-549 breast) was 0.0417 µM. It also gave a TGI (BT-549 breast) of 1.78 µM, a GI50 (MDA-MB-468 breast) of 0.175 µM and a TGI (MDA-MB-468 breast) of 1.94 µM. It also gave a GI50 (SNB-75 CNS) of 0.367 µM, a TGI (SNB-75 CNS) of 13.7 µM and a GI50 (TK-10 renal) of 0.154 µM. It also gave a TGI (TK-10 renal) of 3.7 µM, a GI50 (RPMI-8226 leukemia) of 0.0231 µM and a TGI (RPMI-8226 leukemia) of 0.153 µM. For the same molecule, the GI50 (HL-60(TB) leukemia) was 0.0114 µM, the TGI (HL-60(TB) leukemia) was 0.0446 µM and the GI50 (OVCAR-4 ovarian) was 0.128 µM. For the same molecule, the TGI (OVCAR-4 ovarian) was 0.798 µM, the GI50 (UACC-257 melanoma) was 0.174 µM and the TGI (UACC-257 melanoma) was 16.4 µM. It also gave a GI50 (SW-620 colon) of 1.18 µM, a TGI (SW-620 colon) of 18.5 µM and a GI50 (EKVX NSCLC) of 3.09 µM. It also gave a TGI (EKVX NSCLC) of 20.1 µM, a GI50 (PC-3 prostate) of 0.228 µM and a TGI (PC-3 prostate) of 14.6 µM. It also gave a GI50 (HS 578T breast) of 0.0372 µM, a TGI (HS 578T breast) of 0.355 µM and a GI50 (HCT-116 colon) of 0.235 µM. The TGI (HCT-116 colon) was 12.5 µM, the GI50 (SK-MEL-5 melanoma) was 0.304 µM and the TGI (SK-MEL-5 melanoma) was 10.7 µM. The GI50 (COLO 205 colon) was 0.164 µM, the TGI (COLO 205 colon) was 2.09 µM and the GI50 (MOLT-4 leukemia) was 0.061 µM. The TGI (MOLT-4 leukemia) was 1.28 µM, the GI50 (HT29 colon) was 0.104 µM and the TGI (HT29 colon) was 2.08 µM. For the same molecule, the GI50 (MDA-MB-435 melanoma) was 1.03 µM, the TGI (MDA-MB-435 melanoma) was 12.6 µM and the GI50 (SN12C renal) was 0.42 µM. The TGI (SN12C renal) was 13.1 µM, the GI50 (MDA-MB-231 breast) was 0.0816 µM and the TGI (MDA-MB-231 breast) was 14.3 µM. For the same molecule, the GI50 (NCI-H226 lung) was 0.0983 µM, the TGI (NCI-H226 lung) was 8.21 µM and the GI50 (ACHN renal) was 0.877 µM. It also gave a TGI (ACHN renal) of 15.6 µM, a GI50 ([…]-0 renal) of 0.114 µM and a TGI (786-0 renal) of 12.6 µM. The GI50 (KM12 colon) was 0.471 µM, the TGI (KM12 colon) was 16.4 µM and the GI50 (A549 NSCLC) was 0.596 µM. For the same molecule, the TGI (A549 NSCLC) was 14.7 µM, the GI50 (DU-145 prostate) was 1.17 µM and the TGI (DU-145 prostate) was 28 µM. For the same molecule, the GI50 (NCI/ADR-RES ovarian) was 1.89 µM, the TGI (NCI/ADR-RES ovarian) was 8.45 µM and the GI50 (HCC-2998 colon) was 0.107 µM. The TGI (HCC-2998 colon) was 1.05 µM, the GI50 (MALME-3M melanoma) was 0.194 µM and the TGI (MALME-3M melanoma) was 3.6 µM. For the same molecule, the GI50 (SF-268 CNS) was 0.627 µM, the TGI (SF-268 CNS) was 12.8 µM and the GI50 (SK-MEL-28 melanoma) was 0.581 µM. The TGI (SK-MEL-28 melanoma) was 15.7 µM, the GI50 (HCT-15 colon) was 0.247 µM and the TGI (HCT-15 colon) was 7.33 µM. The GI50 (SF-295 CNS) was 0.803 µM and the TGI (SF-295 CNS) was 13.1 µM.

Work on `O=c1[nH]cc(F)c(=O)[nH]1` yielded a GI50 (SF-539 CNS) of 4.2 µM, a GI50 (UACC-62 melanoma) of 8.73 µM and a GI50 (M14 melanoma) of 65.7 µM. For the same molecule, the GI50 (IGROV1 ovarian) was over 30.6 µM, the GI50 (RXF 393 renal) was 27.7 µM and the GI50 (A498 renal) was 5.89 µM. The GI50 (NCI-H460 NSCLC) was 3.23 µM, the TGI (NCI-H460 NSCLC) was 38.8 µM and the GI50 (SNB-19 CNS) was 51.7 µM. The GI50 (SR leukemia) was 2 µM, the TGI (SR leukemia) was 6.89 µM and the GI50 (LOX IMVI melanoma) was 17.1 µM. The GI50 (UO-31 renal) was 8.23 µM, the GI50 (NCI-H23 lung) was 29.6 µM and the GI50 (MCF7 breast) was 2.58 µM. For the same molecule, the GI50 (SK-OV-3 ovarian) was over 69.9 µM, the GI50 (U251 glioblastoma) was 22 µM and the GI50 (T-47D breast) was 78.3 µM. It also gave a GI50 (HOP-62 NSCLC) of 13.6 µM, a GI50 (OVCAR-8 ovarian) of 37.2 µM and a GI50 (CCRF-CEM leukemia) of over 27.9 µM. It also gave a GI50 (CAKI-1 renal) of 9.98 µM, a GI50 (K-562 leukemia) of 18.7 µM and a GI50 (NCI-H522 lung) of 55.6 µM. The GI50 (NCI-H322M lung) was 32.7 µM, the GI50 (OVCAR-3 ovarian) was 6.27 µM and the TGI (OVCAR-3 ovarian) was over 86.5 µM. It also gave a GI50 (BT-549 breast) of 3.96 µM, a GI50 (MDA-MB-468 breast) of 41.8 µM and a TGI (MDA-MB-468 breast) of over 86.2 µM. It also gave a GI50 (OVCAR-5 ovarian) of 13.1 µM, a GI50 (SNB-75 CNS) of 7.12 µM and a TGI (SNB-75 CNS) of over 29.7 µM. The GI50 (TK-10 renal) was 35.1 µM, the GI50 (RPMI-8226 leukemia) was 0.162 µM and the TGI (RPMI-8226 leukemia) was 0.476 µM. For the same molecule, the GI50 (HL-60(TB) leukemia) was 11 µM, the GI50 (SW-620 colon) was 25 µM and the GI50 (PC-3 prostate) was over 80.5 µM. It also gave a GI50 (HS 578T breast) of 12.1 µM, a GI50 (HCT-116 colon) of 3.94 µM and a GI50 (SK-MEL-5 melanoma) of 5.77 µM. For the same molecule, the GI50 (COLO 205 colon) was 1.45 µM, the GI50 (MOLT-4 leukemia) was 1.64 µM and the TGI (MOLT-4 leukemia) was 3.26 µM. The GI50 (HT29 colon) was 7.03 µM, the GI50 (MDA-MB-435 melanoma) was 16.8 µM and the GI50 (SN12C renal) was 14.5 µM. The GI50 (MDA-MB-231 breast) was over 89.7 µM, the GI50 (ACHN renal) was 11.6 µM and the GI50 ([…]-0 renal) was 9.77 µM. It also gave a GI50 (KM12 colon) of 6.5 µM, a GI50 (A549 NSCLC) of 2.21 µM and a GI50 (DU-145 prostate) of 5.49 µM. The GI50 (HCC-2998 colon) was 13.6 µM, the GI50 (MALME-3M melanoma) was 85.5 µM and the GI50 (SF-268 CNS) was 45.2 µM. It also gave a GI50 (SK-MEL-28 melanoma) of 19.3 µM, a GI50 (HCT-15 colon) of 5.28 µM and a GI50 (SF-295 CNS) of 22 µM.
